Data from US20160177395A1, “BIOMARKERS FOR THE PREDICTION OF RENAL INJURY” (priority 2007, published 2016).
“And” between values parts separate entries of the source, which are not always exact repeats. Equal values may be shown once. “Also recorded” adds a separate entry of the source.

Columns and labels:
kidney tissues = assay: Random-Forest classifier for renal toxicity, discovery stage (Day-5 and Day-1 signatures); parameters: species or system rat; conditions: Day-5 animals, qRT-PCR data, signature of Table 13
From the text: Finding signatures using machine learning algorithms requires two steps—selecting a limited set of features to be used for the signature, and building a classifier using these features. The feature selection stage is especially significant here for several reasons. Large number of features means a low signal to noise ratio, tampering the classifier performance, large number of features, compared to the relatively small number of samples, means that spurious features might exists. These are features that give good classification on the experiment data by chance, causing the classifier to be over-fitted to the learning set and have low prediction ability, and finally—a small number of features is important for practical application of the signature.
The initial features selection process is done by performing Mann-Whitney (Wilcoxon) rank-sum test on the data, considering only probesets whose overall normalized expression mean is over 25, to avoid working at noise-level. […]
The qRT-PCR data was used to construct the optimal Random-Forest classifier for Day-5 (Table 13) and Day-1 (Table 16). The optimal performance of the Day-5 signatures, as measured by cross validation is—Accuracy of 94% and LOR of 5.6. […]

[1] = tested on: Sprague-Dawley Crl:CD(SD) rats; assay: Rat toxicity study, single, 5-day and 28-day treatment (clinical observation, clinical pathology, autopsy, organ weights, histopathology);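 note: control rats received saline intraperitoneally, and the organs examined were adrenals, brain, kidneys, liver, spleen and thymus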
Protocol: Control animals were treated intraperitoneal with saline.
Randomization and group allocation: prior to treatment, the animals were assigned to the experimental groups based on their body weight. Mean body weight of each group at randomization was not deviate±20% of the mean population weight. Males and females were randomized separately. For the randomization, a computer program was used.
The day before autopsy, urinalysis was performed and blood samples were taken for hematology and clinical chemistry examinations.
On the day of autopsy the animals were anaesthetized with isoflurane, blood was collected for PBMC isolation then subjected to autopsy. Tissues and organs (adrenals, brain, kidneys, liver, spleen and thymus) were weighed and subjected to gross pathological and histopathological examinations.

[2] = tested on: kidney tissues of treated or untreated rats; assay: Real-time qRT-PCR of signature amplicons, validation stage, labeled and un-labeled samples (Table 23); conditions: listed as CadCl; for H31883_DB71_seg13 normalized qRT-PCR result / MUSCYCG1R_DB81_seg19-20 normalized qRT-PCR result / W41270_DB81_seg11 normalized qRT-PCR result: labeled sample, one line per animal; for H31883_DB71_seg13 normalized qRT-PCR expression (Cyclin-G1 (CCNG1) transcript) / MUSCYCG1R_DB81_seg19-20 normalized qRT-PCR expression / W41270_DB81_seg11 normalized qRT-PCR expression (tumor necrosis factor receptor superfamily, member 12a transcript): labeled samples
How it was run: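 Rat kidney RNA, labeled and un-labeled samples, run over seven plates; two amplicons per signature gene (wild-type and splice variant). Values normalized to housekeeping genes, then per plate and amplicon by geometric mean of ratios against a shuffled normalization plate (outliers removed), then scaled.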

[3] = 5-day treatment, compared with controls
[4] = day1, kidney of individual male/female rats
[5] = day5, kidney of individual male/female rats
[6] = day28, kidney of individual male/female rats

`[Cl][Cd][Cl]` [Cadmium chloride] was tested, and the “Samples classified correctly as toxic by the optimal Day-5 classifier” value (kidney tissues) was 5 out of 6, the Autopsy findings ([1]; 5-day treatment) was “No effect” and the Body weight gain ([1]; 5-day treatment) was “Body weight gain decreased in both sexes; also recorded: Decreased body weight gain was recorded in males”. The Clinical pathology ([1]; 5-day treatment) was “Slightly increased Gamma GT values were recorded in females; also recorded: ♀: ↑ γGT”, the Clinical symptoms ([1]; 5-day treatment) was “mild clinical symptoms (hollow psoas, colic) immediately after the administration” and the “Histopathology / renal damage” value ([1]; 5-day treatment) was “No renal damage was found”. For the same molecule, the Organ weight [1, 3] was “Lower thymus weights”, the Water consumption [1, 3] was “Decrease in Tobramycin and Cadmium chloride treated females” and the “Body weight and body weight gain” value ([1]; 28-day treatment) was “affected body weight gain in both sexes; also recorded: Effect on body weight and body weight gain was seen”. The Clinical symptoms ([1]; 28-day treatment) was “Mild clinical symptoms (hollow psoas, colic) were recorded in both sexes; also recorded: Clinical symptoms were observed”, the Histopathology / nephrotoxicity ([1]; 28-day treatment) was “significant nephrotoxicity was found only in a single female; also recorded: ♂: lymphoid depletion” and the Water consumption ([1]; 28-day treatment) was “Slightly lower water consumption was recorded in males”. The Clinical pathology ([1]; 28-day treatment, blood and urine) was “AST (Aspartate Aminotransferase) values were elevated in both sexes; also recorded: A few transitional epithelial cells were observed in the urine of females; also recorded: ♀: trans. epith”, the “Water consumption, males” value ([1]; 28-day treatment, compared with controls) was “Sight decrease during the last week” and the “Decreasing order of nephrotoxicity at histopathological examination” value ([1]; 28-day treatment, females) was “Cisplatin, Cadmium chloride, Gentamycin, Doxorubicin and Tobramycin in females”. For the same molecule, the Autopsy findings ([1]; 28-day treatment, male and female rats) was “Round bordered spleen and liver and thickening of peritoneum were recorded in both sexes; also recorded: Pale and enlarged kidneys were found in a single female; also recorded: Round bordered liver, enlarged spleen and thickening of the peritoneum were found in both sexes”, the Organ weight ([1]; 28-day treatment, male and female rats, compared with controls) was “higher liver and spleen weight; also recorded: increased weight of kidneys and decreased thymus were recorded in females; also recorded: Increased liver weights in groups of both sexes; also recorded: Higher weights of kidneys in females; also recorded: Weights of spleen were higher in Gentamycin treated males and Cadmium chloride treated groups of both sexes; also recorded: Decreased thymus weights” and the Clinical symptoms ([1]; single and 5-day treatment) was “Clinical symptoms were observed only in Cadmium chloride groups of both sexes”. The Body weight gain ([1]; single treatment) was “Decreased body weight gain was recorded in both sexes”, the Clinical pathology ([1]; single treatment) was “Lower lymphocytes and increased neutrophils counts were found in males” and the Clinical symptoms ([1]; single treatment) was “Mild clinical symptoms (hollow psoas, colic) were observed in both sexes”. The “H31883_DB71_seg13 normalized qRT-PCR result” value ([2]; day1, female rat kidney) was 1.194 and 1.772 and 1.894, the “MUSCYCG1R_DB81_seg19-20 normalized qRT-PCR result” value ([2]; day1, female rat kidney) was 1.133 and 1.64 and 1.263 and the “W41270_DB81_seg11 normalized qRT-PCR result” value ([2]; day1, female rat kidney) was 1.059 and 1.155 and 1.372. For the same molecule, the “H31883_DB71_seg13 normalized qRT-PCR result” value ([2]; day1, male rat kidney) was 1.034 and 1.027 and 0.957, the “MUSCYCG1R_DB81_seg19-20 normalized qRT-PCR result” value ([2]; day1, male rat kidney) was 0.951 and 1.108 and 1.069 and the “W41270_DB81_seg11 normalized qRT-PCR result” value ([2]; day1, male rat kidney) was 1.499 and 1.622 and 1.512. The “H31883_DB71_seg13 normalized qRT-PCR result” value ([2]; day5, female rat kidney) was 1.782 and 0.906, the “MUSCYCG1R_DB81_seg19-20 normalized qRT-PCR result” value ([2]; day5, female rat kidney) was 1.866 and 0.805 and the “W41270_DB81_seg11 normalized qRT-PCR result” value ([2]; day5, female rat kidney) was 2.282 and 0.854. The “H31883_DB71_seg13 normalized qRT-PCR result” value ([2]; day5, male rat kidney) was 1.104 and 1.157 and 1.671, the “MUSCYCG1R_DB81_seg19-20 normalized qRT-PCR result” value ([2]; day5, male rat kidney) was 1.083 and 1.409 and 2.393 and the “W41270_DB81_seg11 normalized qRT-PCR result” value ([2]; day5, male rat kidney) was 1.337 and 1.662 and 1.675. The “H31883_DB71_seg13 normalized qRT-PCR result” value ([2]; day28, female rat kidney) was 0.259 and 0.783 and 1.033, the “MUSCYCG1R_DB81_seg19-20 normalized qRT-PCR result” value ([2]; day28, female rat kidney) was 0.728 and 0.975 and 1.58 and the “W41270_DB81_seg11 normalized qRT-PCR result” value ([2]; day28, female rat kidney) was 0.414 and 0.827 and 1.098. For the same molecule, the “H31883_DB71_seg13 normalized qRT-PCR result” value ([2]; day28, male rat kidney) was 0.531 and 0.817 and 0.633, the “MUSCYCG1R_DB81_seg19-20 normalized qRT-PCR result” value ([2]; day28, male rat kidney) was 0.672 and 0.836 and 0.333 and the “W41270_DB81_seg11 normalized qRT-PCR result” value ([2]; day28, male rat kidney) was 0.781 and 1.107 and 0.807. The “H31883_DB71_seg13 normalized qRT-PCR expression (Cyclin-G1 (CCNG1) transcript)” value [2, 4] was 0.919 and 1.005 and 1.446 and 1.239 and 1.632 and 1.143, the “MUSCYCG1R_DB81_seg19-20 normalized qRT-PCR expression” value [2, 4] was 1.224 and 1.097 and 2.129 and 2.276 and 1.856 and 3.981 and the “W41270_DB81_seg11 normalized qRT-PCR expression (tumor necrosis factor receptor superfamily, member 12a transcript)” value [2, 4] was 0.727 and 1.183 and 1.265 and 0.993 and 0.983 and 1. For the same molecule, the “H31883_DB71_seg13 normalized qRT-PCR expression (Cyclin-G1 (CCNG1) transcript)” value [2, 5] was 1.057 and 1.154 and 0.786 and 1.132 and 1.051, the “MUSCYCG1R_DB81_seg19-20 normalized qRT-PCR expression” value [2, 5] was 1.036 and 2.018 and 1.292 and 3.613 and 2.866 and the “W41270_DB81_seg11 normalized qRT-PCR expression (tumor necrosis factor receptor superfamily, member 12a transcript)” value [2, 5] was 1.067 and 2.101 and 1.109 and 0.769 and 1.211. The “H31883_DB71_seg13 normalized qRT-PCR expression (Cyclin-G1 (CCNG1) transcript)” value [2, 6] was 0.785 and 0.652 and 0.712 and 0.681 and 0.849 and 0.578, the “MUSCYCG1R_DB81_seg19-20 normalized qRT-PCR expression” value [2, 6] was 0.769 and 1.356 and 1.068 and 0.68 and 2.128 and 0.932 and the “W41270_DB81_seg11 normalized qRT-PCR expression (tumor necrosis factor receptor superfamily, member 12a transcript)” value [2, 6] was 1.138 and 0.529 and 0.772 and 0.578 and 0.654 and 0.522.
